Assay results published in ChEMBL document CHEMBL1201862, “PubChem BioAssay data set” (2004).
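Cultured in 96-well plates, cells were exposed to test compound for 48 hours across five concentrations. The concentration for 50% growth inhibition is given as GI50.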 Active and inactive are the calls of the source. No stated cut-off is given here; in the data, active = GI50 up to about 1.1 µM and inactive = higher.

Columns and labels:
Assay in all cases: DTP human tumour cell line panel, 48 h
EKVX = system: EKVX
HCC 2998 = system: HCC 2998
HT-29 = system: HT-29
K562 = system: K562
KM12 = system: KM12
MDA-MB-435 = system: MDA-MB-435
MOLT-4 = system: MOLT-4
NCI-H460 = system: NCI-H460
NCI/ADR-RES = system: NCI/ADR-RES
OVCAR-3 = system: OVCAR-3
OVCAR-8 = system: OVCAR-8
SF-295 = system: SF-295
SF-539 = system: SF-539
SNB-19 = system: SNB-19
UACC-257 = system: UACC-257
UO-31 = system: UO-31
HOP-62 = system: HOP-62
RPMI-8226 = system: RPMI-8226
SR = system: SR

CC1C2(C)OC(=N)C(C#N)(C(c3ccccc3)O2)C1(C#N)C#N (configuration not stated) was tested, and the GI50 (EKVX) was 21.4 µM (inactive), the GI50 (HCC 2998) was 10.8 µM (inactive) and the GI50 (HT-29) was 18.1 µM (inactive). The GI50 (K562) was 25.1 µM (inactive), the GI50 (KM12) was 51.5 µM (inactive) and the GI50 (MDA-MB-435) was 33.3 µM (inactive). The GI50 (MOLT-4) was 25.4 µM (inactive), the GI50 (NCI-H460) was 12.6 µM (inactive) and the GI50 (NCI/ADR-RES) was 42.9 µM (inactive). For the same compound, the GI50 (OVCAR-3) was 15.1 µM (inactive), the GI50 (OVCAR-8) was 30.4 µM (inactive) and the GI50 (SF-295) was 86.5 µM (inactive). The GI50 (SF-539) was 20.3 µM (inactive), the GI50 (SNB-19) was 55.2 µM (inactive) and the GI50 (UACC-257) was 25.2 µM (inactive). The GI50 (UO-31) was 39.8 µM (inactive).
In the case of N=C(N)NS(=O)(=O)c1ccc(Nc2c3ccccc3nc3c(C(=O)NNCCO)cccc23)cc1, the GI50 (EKVX) is reported as 0.361 µM (active), the GI50 (HCC 2998) is reported as 0.211 µM (active) and the GI50 (HOP-62) is reported as 0.193 µM (active). For the same compound, the GI50 (HT-29) was 0.352 µM (active), the GI50 (K562) was 0.055 µM (active) and the GI50 (KM12) was 0.141 µM (active). For the same compound, the GI50 (MDA-MB-435) was 0.0585 µM (active), the GI50 (MOLT-4) was 0.184 µM (active) and the GI50 (NCI-H460) was 0.158 µM (active). The GI50 (NCI/ADR-RES) was > 1 µM (active), the GI50 (OVCAR-3) was 0.134 µM (active) and the GI50 (OVCAR-8) was 0.303 µM (active). For the same compound, the GI50 (RPMI-8226) was 0.137 µM (active), the GI50 (SF-295) was 0.407 µM (active) and the GI50 (SF-539) was 0.303 µM (active). For the same compound, the GI50 (SNB-19) was 0.276 µM (active), the GI50 (UACC-257) was 0.22 µM (active) and the GI50 (UO-31) was 0.416 µM (active).
Cn1c(=O)c2c(O)cc(N)nc2n(C)c1=O was tested, and the GI50 (EKVX) was > 100 µM (inactive), the GI50 (HCC 2998) was > 100 µM (inactive) and the GI50 (HOP-62) was > 100 µM (inactive). For the same compound, the GI50 (HT-29) was > 100 µM (inactive), the GI50 (K562) was > 100 µM (inactive) and the GI50 (KM12) was > 100 µM (inactive). For the same compound, the GI50 (MDA-MB-435) was > 100 µM (inactive), the GI50 (MOLT-4) was > 100 µM (inactive) and the GI50 (NCI-H460) was > 100 µM (inactive). The GI50 (NCI/ADR-RES) was > 100 µM (inactive), the GI50 (OVCAR-3) was > 100 µM (inactive) and the GI50 (OVCAR-8) was 63.4 µM (inactive). For the same compound, the GI50 (RPMI-8226) was > 100 µM (inactive), the GI50 (SF-295) was > 100 µM (inactive) and the GI50 (SF-539) was > 100 µM (inactive). For the same compound, the GI50 (SNB-19) was > 100 µM (inactive), the GI50 (UACC-257) was > 100 µM (inactive) and the GI50 (UO-31) was > 100 µM (inactive).
In the case of Cc1cc(S(=O)(=O)Nc2nc(N)nc(N3N=CCC3C)n2)c(SCC(=O)O)cc1Cl (configuration not stated), the GI50 (EKVX) is reported as > 10 µM (inactive), the GI50 (HCC 2998) is reported as > 10 µM (inactive) and the GI50 (HOP-62) is reported as > 10 µM (inactive). The GI50 (HT-29) was > 10 µM (inactive), the GI50 (K562) was > 10 µM (inactive) and the GI50 (KM12) was > 10 µM (inactive). The GI50 (MDA-MB-435) was > 10 µM (inactive), the GI50 (MOLT-4) was > 10 µM (inactive) and the GI50 (NCI-H460) was > 10 µM (inactive). For the same compound, the GI50 (NCI/ADR-RES) was > 10 µM (inactive), the GI50 (OVCAR-3) was > 10 µM (inactive) and the GI50 (OVCAR-8) was > 10 µM (inactive). For the same compound, the GI50 (RPMI-8226) was > 10 µM (inactive), the GI50 (SF-295) was > 10 µM (inactive) and the GI50 (SF-539) was > 10 µM (inactive). The GI50 (SNB-19) was > 10 µM (inactive), the GI50 (UACC-257) was > 10 µM (inactive) and the GI50 (UO-31) was 0.001 µM (active).
C/C(=N\Nc1ccc([N+](=O)[O-])cc1)C(=O)N(C)Nc1ccccc1 was tested, and the GI50 (EKVX) was 34.5 µM (inactive), the GI50 (HCC 2998) was 33.8 µM (inactive) and the GI50 (HOP-62) was > 100 µM (inactive). The GI50 (HT-29) was 66.8 µM (inactive), the GI50 (K562) was 63.2 µM (inactive) and the GI50 (KM12) was 24 µM (inactive). The GI50 (MOLT-4) was 41 µM (inactive), the GI50 (NCI-H460) was 47.1 µM (inactive) and the GI50 (OVCAR-3) was 43.9 µM (inactive). For the same compound, the GI50 (OVCAR-8) was 51.4 µM (inactive), the GI50 (RPMI-8226) was 76 µM (inactive) and the GI50 (SF-295) was 34.5 µM (inactive). The GI50 (SF-539) was 76.4 µM (inactive), the GI50 (SNB-19) was > 100 µM (inactive) and the GI50 (SR) was 47.8 µM (inactive). For the same compound, the GI50 (UACC-257) was 31.6 µM (inactive) and the GI50 (UO-31) was 39.9 µM (inactive).
With Nc1ncnc2c1cnn2Cc1cn(COCC(O)CO)nn1 (configuration not stated) the GI50 (EKVX) was > 100 µM (inactive), the GI50 (HCC 2998) was > 100 µM (inactive) and the GI50 (HOP-62) was > 100 µM (inactive). The GI50 (HT-29) was > 100 µM (inactive), the GI50 (KM12) was > 100 µM (inactive) and the GI50 (MDA-MB-435) was > 100 µM (inactive). For the same compound, the GI50 (NCI/ADR-RES) was > 100 µM (inactive), the GI50 (OVCAR-3) was > 100 µM (inactive) and the GI50 (OVCAR-8) was > 100 µM (inactive). For the same compound, the GI50 (SF-295) was > 100 µM (inactive), the GI50 (SF-539) was > 100 µM (inactive) and the GI50 (SNB-19) was > 100 µM (inactive). For the same compound, the GI50 (UACC-257) was > 100 µM (inactive) and the GI50 (UO-31) was > 100 µM (inactive).
For Oc1ccc(Br)cc1/C=N/c1cccc(C(F)(F)F)c1, the GI50 (EKVX) was 27.1 µM (inactive), the GI50 (HCC 2998) was 23.1 µM (inactive) and the GI50 (HOP-62) was 49.5 µM (inactive). For the same compound, the GI50 (HT-29) was 37.8 µM (inactive), the GI50 (K562) was 12.4 µM (inactive) and the GI50 (KM12) was 36.6 µM (inactive). The GI50 (MDA-MB-435) was 30.5 µM (inactive), the GI50 (MOLT-4) was 23.1 µM (inactive) and the GI50 (NCI-H460) was > 100 µM (inactive). For the same compound, the GI50 (NCI/ADR-RES) was 28.5 µM (inactive), the GI50 (OVCAR-3) was 37 µM (inactive) and the GI50 (OVCAR-8) was 30.4 µM (inactive). The GI50 (RPMI-8226) was 28.1 µM (inactive), the GI50 (SF-295) was 38.6 µM (inactive) and the GI50 (SF-539) was 20.8 µM (inactive). The GI50 (SNB-19) was 39.4 µM (inactive), the GI50 (UACC-257) was 35.6 µM (inactive) and the GI50 (UO-31) was 35.6 µM (inactive).
CC1(C)CC(=O)C(=[N+]=[N-])C(=O)C1 was tested, and the GI50 (EKVX) was > 100 µM (inactive), the GI50 (HCC 2998) was > 100 µM (inactive) and the GI50 (HOP-62) was > 100 µM (inactive). The GI50 (HT-29) was > 100 µM (inactive), the GI50 (K562) was > 100 µM (inactive) and the GI50 (KM12) was > 100 µM (inactive). The GI50 (OVCAR-3) was > 100 µM (inactive), the GI50 (RPMI-8226) was > 100 µM (inactive) and the GI50 (SF-295) was > 100 µM (inactive). For the same compound, the GI50 (SF-539) was > 100 µM (inactive), the GI50 (SNB-19) was > 100 µM (inactive) and the GI50 (UACC-257) was > 100 µM (inactive).
For CC(C)OC1OC(CO)C(O)CC1n1cc(F)c(=O)[nH]c1=O (configuration not stated), the GI50 (EKVX) was > 100 µM (inactive), the GI50 (HCC 2998) was > 100 µM (inactive) and the GI50 (HT-29) was > 100 µM (inactive). For the same compound, the GI50 (K562) was 34.4 µM (inactive), the GI50 (KM12) was > 100 µM (inactive) and the GI50 (MDA-MB-435) was > 100 µM (inactive). The GI50 (NCI-H460) was > 100 µM (inactive), the GI50 (NCI/ADR-RES) was > 100 µM (inactive) and the GI50 (OVCAR-3) was > 100 µM (inactive). For the same compound, the GI50 (OVCAR-8) was > 100 µM (inactive), the GI50 (RPMI-8226) was 39.4 µM (inactive) and the GI50 (SF-295) was > 100 µM (inactive). The GI50 (SF-539) was > 100 µM (inactive), the GI50 (SNB-19) was > 100 µM (inactive) and the GI50 (UACC-257) was > 100 µM (inactive). For the same compound, the GI50 (UO-31) was > 100 µM (inactive).
